Drawing on US20260028354A1, “TETRAHYDRONAPHTHALENE DERIVATIVES AS ESTROGEN RECEPTOR DEGRADERS” (REGENT OF THE UNIVERSITY OF MICHIGAN, priority 2022, published 2026), this text covers DC50 for 18 molecules.

One may read the DC50 as the concentration giving 50% degradation.

This test is described as follows: Western blot analysis for "B" compounds. Format: cell-based. The settings on record: read-out: Traditional Western Degradation Potency (DC50). The gist of the method:
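Compound-treated cells lysed in RIPA buffer with protease inhibitors; equal protein (BCA) run on 10% SDS-PAGE, transferred to PVDF and probed with target antibodies. Band intensities quantified by densitometry and normalized to GAPDH.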

A value given as a limit tells only on which side of the number the result lay.

For `O=C1CCC(N2C(=O)c3cc4c(cc3C2=O)CN(C(=O)[C@H]2CC[C@H](CN3CC(Nc5ccc([C@@H]6c7ccc(O)cc7CC[C@@H]6c6ccccc6)cc5)C3)CC2)C4)C(=O)N1` (stereo partly drawn) [Compound B112, 2-(2,6-dioxopiperidin-3-yl)-6-((1R,4r)-4-((3-((4-((1R,2S)-6-hydroxy-2-phenyl-1,2,3,4-tetrahydronaphthalen-1-yl)phenyl)amino)azetidin-1-yl)methyl)cyclohexane-1-carbonyl)-6,7-dihydropyrrolo[3,4-f]isoindole-1,3(2H,5H)-dione], the DC50 was < 10 nM.
Next, `O=C1CCC(N2C(=O)c3cc4c(cc3C2=O)CN(C(=O)C2CCC(CN3CCN(c5ccc([C@@H]6c7ccc(O)cc7CC[C@@H]6c6ccccc6)cc5)CC3)CC2)C4)C(=O)N1` (stereo partly drawn) [Compound B114, 2-(2,6-dioxopiperidin-3-yl)-6-(4-((4-(4-((1R,2S)-6-hydroxy-2-phenyl-1,2,3,4-tetrahydronaphthalen-1-yl)phenyl)piperazin-1-yl)methyl)cyclohexane-1-carbonyl)-6,7-dihydropyrrolo[3,4-f]isoindole-1,3(2H,5H)-dione]: > 100 nM.
For `O=C1CCC(N2C(=O)c3cc4c(cc3C2=O)CN(Cc2ccc(N3CC(Nc5ccc([C@@H]6c7ccc(O)cc7CC[C@@H]6c6ccccc6)cc5)C3)nc2)C4)C(=O)N1` (stereo partly drawn) [Compound B117, 2-(2,6-dioxopiperidin-3-yl)-6-((6-(3-((4-((1R,2S)-6-hydroxy-2-phenyl-1,2,3,4-tetrahydronaphthalen-1-yl)phenyl)amino)azetidin-1-yl)pyridin-3-yl)methyl)-6,7-dihydropyrrolo[3,4-f]isoindole-1,3(2H,5H)-dione], the DC50 was > 100 nM.
Next, `O=C1CCC(N2C(=O)c3cc4c(cc3C2=O)CN(C[C@H]2CC[C@H](N3CC(Nc5ccc([C@@H]6c7ccc(O)cc7CC[C@@H]6c6ccccc6)cc5)C3)CC2)C4)C(=O)N1` (stereo partly drawn) [Compound B118, 2-(2,6-dioxopiperidin-3-yl)-6-(((1R,4r)-4-(3-((4-((1R,2S)-6-hydroxy-2-phenyl-1,2,3,4-tetrahydronaphthalen-1-yl)phenyl)amino)azetidin-1-yl)cyclohexyl)methyl)-6,7-dihydropyrrolo[3,4-f]isoindole-1,3(2H,5H)-dione]: > 100 nM; `O=C1CCC(N2C(=O)c3cc4c(cc3C2=O)CN(C[C@H]2CC[C@@H](N3CC(Nc5ccc([C@@H]6c7ccc(O)cc7CC[C@@H]6c6ccccc6)cc5)C3)CC2)C4)C(=O)N1` (stereo partly drawn) [Compound B119, 2-(2,6-dioxopiperidin-3-yl)-6-(((1S,4s)-4-(3-((4-((1R,2S)-6-hydroxy-2-phenyl-1,2,3,4-tetrahydronaphthalen-1-yl)phenyl)amino)azetidin-1-yl)cyclohexyl)methyl)-6,7-dihydropyrrolo[3,4-f]isoindole-1,3(2H,5H)-dione]: > 100 nM; `O=C1CCC(N2C(=O)c3cc4c(cc3C2=O)CN(CC(=O)N2CCC(C(=O)N3CC(Oc5ccc([C@@H]6c7ccc(O)cc7CC[C@@H]6c6ccccc6)cc5)C3)CC2)C4)C(=O)N1` (stereo partly drawn) [Compound B120, 2-(2,6-dioxopiperidin-3-yl)-6-(2-(4-(3-(4-((1R,2S)-6-hydroxy-2-phenyl-1,2,3,4-tetrahydronaphthalen-1-yl)phenoxy)azetidine-1-carbonyl)piperidin-1-yl)-2-oxoethyl)-6,7-dihydropyrrolo[3,4-f]isoindole-1,3(2H,5H)-dione]: > 100 nM.
Turning to `O=C1CCC(N2C(=O)c3cc4c(cc3C2=O)CN(CC(=O)N2CCC(N3CC(Oc5ccc([C@@H]6c7ccc(O)cc7CC[C@@H]6c6ccccc6)cc5)C3)CC2)C4)C(=O)N1` (stereo partly drawn) [Compound B121, 2-(2,6-dioxopiperidin-3-yl)-6-(2-(4-(3-(4-((1R,2S)-6-hydroxy-2-phenyl-1,2,3,4-tetrahydronaphthalen-1-yl)phenoxy)azetidin-1-yl)piperidin-1-yl)-2-oxoethyl)-6,7-dihydropyrrolo[3,4-f]isoindole-1,3(2H,5H)-dione], the DC50 fell in the range of 10 to 100 nM.
As to `O=C1CCC(N2C(=O)c3cc4c(cc3C2=O)CN([C@H]2CC[C@H](C(=O)N3CC(Oc5ccc([C@@H]6c7ccc(O)cc7CC[C@@H]6c6ccccc6)cc5)C3)CC2)C4)C(=O)N1` (stereo partly drawn) [Compound B122, 2-(2,6-dioxopiperidin-3-yl)-6-((1S,4r)-4-(3-(4-((1R,2S)-6-hydroxy-2-phenyl-1,2,3,4-tctrahydronaphthalcn-1-yl)phenoxy)azetidine-1-carbonyl)cyclohexyl)-6,7-dihydropyrrolo[3,4-f]isoindole-1,3(2H,5H)-dione], the DC50 was in the range of 10 to 100 nM.
Take `O=C1CCC(N2C(=O)c3cc4c(cc3C2=O)CN([C@H]2CC[C@@H](C(=O)N3CC(Oc5ccc([C@@H]6c7ccc(O)cc7CC[C@@H]6c6ccccc6)cc5)C3)CC2)C4)C(=O)N1` (stereo partly drawn) [Compound B123, 2-(2,6-dioxopiperidin-3-yl)-6-((1R,4s)-4-(3-(4-((1R,2S)-6-hydroxy-2-phenyl-1,2,3,4-tetrahydronaphthalen-1-yl)phenoxy)azetidine-1-carbonyl)cyclohexyl)-6,7-dihydropyrrolo[3,4-f]isoindole-1,3(2H,5H)-dione]: the 50% degradation concentration (DC50) is < 10 nM.
In the case of `O=C1CCC(N2C(=O)c3cc4c(cc3C2=O)CN([C@H]2CC[C@H](C(=O)N3CC(Nc5ccc([C@@H]6c7ccc(O)cc7CC[C@@H]6c6ccccc6)cc5)C3)CC2)C4)C(=O)N1` (stereo partly drawn) [Compound B124, 2-(2,6-dioxopiperidin-3-yl)-6-((1S,4r)-4-(3-((4-((1R,2S)-6-hydroxy-2-phenyl-1,2,3,4-tetrahydronaphthalen-1-yl)phenyl)amino)azetidine-1-carbonyl)cyclohexyl)-6,7-dihydropyrrolo[3,4-f]isoindole-1,3(2H,5H)-dione], the DC50 was > 100 nM.
For the molecule `O=C1CCC(N2C(=O)c3cc4c(cc3C2=O)CN([C@H]2CC[C@@H](C(=O)N3CC(Nc5ccc([C@@H]6c7ccc(O)cc7CC[C@@H]6c6ccccc6)cc5)C3)CC2)C4)C(=O)N1` (stereo partly drawn) [Compound B125, 2-(2,6-dioxopiperidin-3-yl)-6-((1R,4s)-4-(3-((4-((1R,2S)-6-hydroxy-2-phenyl-1,2,3,4-tetrahydronaphthalen-1-yl)phenyl)amino)azetidine-1-carbonyl)cyclohexyl)-6,7-dihydropyrrolo[3,4-f]isoindole-1,3(2H,5H)-dione], the DC50 was < 10 nM.
On to `O=C1CCC(N2C(=O)c3cc4c(cc3C2=O)CN(C(=O)[C@H]2CC[C@@H](N3CC(Oc5ccc([C@@H]6c7ccc(O)cc7CC[C@@H]6c6ccccc6)cc5)C3)CC2)C4)C(=O)N1` (stereo partly drawn) [Compound B126, 2-(2,6-dioxopiperidin-3-yl)-6-((1R,4s)-4-(3-(4-((1R,2S)-6-hydroxy-2-phenyl-1,2,3,4-tetrahydronaphthalen-1-yl)phenoxy)azetidin-1-yl)cyclohexane-1-carbonyl)-6,7-dihydropyrrolo[3,4-f]isoindole-1,3(2H,5H)-dione], for which the DC50 fell in the range of 10 to 100 nM.
Next, `O=C1CCC(N2C(=O)c3cc4c(cc3C2=O)CN(C(=O)[C@H]2CC[C@H](N3CC(Oc5ccc([C@@H]6c7ccc(O)cc7CC[C@@H]6c6ccccc6)cc5)C3)CC2)C4)C(=O)N1` (stereo partly drawn) [Compound B127, 2-(2,6-dioxopiperidin-3-yl)-6-((1S,4r)-4-(3-(4-((1R,2S)-6-hydroxy-2-phenyl-1,2,3,4-tetrahydronaphthalen-1-yl)phenoxy)azetidin-1-yl)cyclohexane-1-carbonyl)-6,7-dihydropyrrolo[3,4-f]isoindole-1,3(2H,5H)-dione]: > 100 nM.
Take `O=C1CCC(N2C(=O)c3cc4c(cc3C2=O)CN(C(=O)[C@H]2CC[C@H](N3CC(Nc5ccc([C@@H]6c7ccc(O)cc7CC[C@@H]6c6ccccc6)cc5)C3)CC2)C4)C(=O)N1` (stereo partly drawn) [Compound B128, 2-(2,6-dioxopiperidin-3-yl)-6-((1S,4r)-4-(3-((4-((1R,2S)-6-hydroxy-2-phenyl-1,2,3,4-tetrahydronaphthalen-1-yl)phenyl)amino)azetidin-1-yl)cyclohexane-1-carbonyl)-6,7-dihydropyrrolo[3,4-f]isoindole-1,3(2H,5H)-dione]: the DC50 lay within 10 to 100 nM.
Next, `O=C1CCC(N2C(=O)c3cc4c(cc3C2=O)CN(C(=O)[C@H]2CC[C@@H](N3CC(Nc5ccc([C@@H]6c7ccc(O)cc7CC[C@@H]6c6ccccc6)cc5)C3)CC2)C4)C(=O)N1` (stereo partly drawn) [Compound B129, 2-(2,6-dioxopiperidin-3-yl)-6-((1R,4s)-4-(3-((4-((1R,2S)-6-hydroxy-2-phenyl-1,2,3,4-tetrahydronaphthalen-1-yl)phenyl)amino)azetidin-1-yl)cyclohexane-1-carbonyl)-6,7-dihydropyrrolo[3,4-f]isoindole-1,3(2H,5H)-dione]: > 100 nM.
Next, `CN(c1ccc([C@@H]2c3ccc(O)cc3CC[C@@H]2c2ccccc2)cc1)C1CN([C@H]2CC[C@H](C(=O)N3Cc4cc5c(cc4C3)C(=O)N(C3CCC(=O)NC3=O)C5=O)CC2)C1` (stereo partly drawn) [Compound B130, 2-(2,6-dioxopiperidin-3-yl)-6-((1R,4r)-4-(3-((4-((1R,2S)-6-hydroxy-2-phenyl-1,2,3,4-tetrahydronaphthalen-1-yl)phenyl)(methyl)amino)azetidin-1-yl)cyclohexane-1-carbonyl)-6,7-dihydropyrrolo[3,4-f]isoindole-1,3(2H,5H)-dione]: > 100 nM; `CN(c1ccc([C@@H]2c3ccc(O)cc3CC[C@@H]2c2ccccc2)cc1)C1CN([C@H]2CC[C@@H](C(=O)N3Cc4cc5c(cc4C3)C(=O)N(C3CCC(=O)NC3=O)C5=O)CC2)C1` (stereo partly drawn) [Compound B131, 2-(2,6-dioxopiperidin-3-yl)-6-((1S,4s)-4-(3-((4-((1R,2S)-6-hydroxy-2-phenyl-1,2,3,4-tetrahydronaphthalen-1-yl)phenyl)(methyl)amino)azetidin-1-yl)cyclohexane-1-carbonyl)-6,7-dihydropyrrolo[3,4-f]isoindole-1,3(2H,5H)-dione]: > 100 nM; `CN(c1ccc([C@@H]2c3ccc(O)cc3CC[C@@H]2c2ccccc2)cc1)C1CN(C[C@H]2CC[C@H](C(=O)N3Cc4cc5c(cc4C3)C(=O)N(C3CCC(=O)NC3=O)C5=O)CC2)C1` (stereo partly drawn) [Compound B132, 2-(2,6-dioxopiperidin-3-yl)-6-((1R,4r)-4-((3-((4-((1R,2S)-6-hydroxy-2-phenyl-1,2,3,4-tetrahydronaphthalen-1-yl)phcnyl)(mcthyl)amino)azctidin-1-yl)mcthyl)cyclohexanc-1-carbonyl)-6,7-dihydropyrrolo[3,4-f]isoindole-1,3(2H,5H)-dione]: > 100 nM.
